We go through 21 compounds from US11001590B2, “Pyrazolopyrimidine derivatives” (BAYER ANIMAL HEALTH GMBH, priority 2016, dated 2021).

Molecules are shown by their SMILES.

The test system of the first series is Dirofilaria immitis microfilariae. The experiment in a line: In vitro assay 3: Dirofilaria immitis microfilariae (DIROIM L1), motility. The settings on record: 72 h, reduction of motility vs negative control, 72 h incubation.
`Cc1nn2c(C(C)C)c(C(=O)N[C@H]3CCOc4ccccc43)cnc2c1-c1cc(O)c(F)c(F)c1` [Example 259]: the EC50 is below 1 µg/mL.

In turn, `Cc1nn2c(C(C)C)c(C(=O)N[C@H]3CCc4ccccc43)cnc2c1-c1cccc(OC(C)C)c1` [Example 321] came in with an EC50 below 1 µg/mL.

`Cc1nn2c(C(C)C)c(C(=O)N[C@H]3CCc4ccccc43)cnc2c1-c1cccc(CN2CCOCC2)c1` [Example 354] registered an EC50 below 10 µg/mL.

For the compound `Cc1nn2c(C(C)C)c(C(=O)N[C@H]3CCCc4ccccc43)cnc2c1-c1cc(Cl)c(Cl)c(Cl)c1` [Example 125], the EC50 was below 1 µg/mL.

`Cc1nn2c(C3CC3)c(C(=O)N[C@H]3CCc4ccccc43)cnc2c1-c1cccc(N2CC(F)C2)c1` [Example 466] registered an EC50 below 10 µg/mL.

Take `Cc1nn2c(C(C)C)c(C(=O)N[C@H]3CCc4ccccc43)cnc2c1-c1cccc(F)n1` [Example 178]: the EC50 is below 10 µg/mL.

Regarding `Cc1nn2c(CC(C)C)c(C(=O)N[C@H]3CCc4ccccc43)cnc2c1-c1c(F)cccc1Cl` [Example 224], the EC50 was below 1 µg/mL.

Compound `Cc1nn2c(C(C)C)c(C(=O)N[C@H]3CCc4ccccc43)cnc2c1-c1cccnc1` [Example 297] showed an EC50 below 10 µg/mL.

The compound `Cc1nn2c(C(C)C)c(C(=O)N[C@H]3CCOc4ccccc43)cnc2c1-c1ccc(Cl)cc1` [Example 118] returned an EC50 below 0.1 µg/mL.

In turn, `CC(C)c1c(C(=O)N[C@H]2CCc3ccccc32)cnc2c(-c3c(F)cc(F)cc3F)c(C(F)(F)F)nn12` [Example 133] registered an EC50 below 1 µg/mL.

Turning to `Cc1nn2c(C(C)C)c(C(=O)N[C@H]3CCc4ccccc43)cnc2c1-n1cc(Cl)cn1` [Example 447], the EC50 is below 10 µg/mL.

Turning to `Cc1nn2c(C(C)C)c(C(=O)N[C@H]3CCc4ccccc43)cnc2c1-c1cccc(N2CCC2)c1` [Example 372], the EC50 is below 1 µg/mL.

`Cc1nn2c(C(C)C)c(C(=O)N[C@H]3CCc4ccccc43)cnc2c1-c1cncc(Cl)c1` [Example 314] registered an EC50 below 0.1 µg/mL.

In the case of `CC(C)c1c(C(=O)N[C@H]2CCCc3ccccc32)cnc2c(-c3c(F)cccc3F)c(C(F)(F)F)nn12` [Example 138], the EC50 was below 10 µg/mL.

With `CCS(=O)(=O)c1nn2c(C(C)C)c(C(=O)N[C@H]3CCOc4ccccc43)cnc2c1-c1cc(Cl)cc(Cl)c1` [Example 212], the EC50 was below 10 µg/mL.

The compound `Cc1nn2c(C(C)C)c(C(=O)N[C@H]3CCc4ccccc43)cnc2c1-c1cccc(C(F)(F)F)n1` [Example 179] gave an EC50 below 10 µg/mL.

Compound `Cc1nn2c(C(C)C)c(C(=O)N[C@H]3CCc4ccccc43)cnc2c1-c1cccc(S(=O)(=O)C2CC2)c1` [Example 443] returned an EC50 below 10 µg/mL.

In the case of `Cc1nn2c(C(C)C)c(C(=O)N[C@H]3CCc4ccccc43)cnc2c1-c1cc(Cl)c(Cl)c(Cl)c1` [Example 122], the EC50 was below 0.1 µg/mL.

Compound `Cc1nn2c(C(C)C)c(C(=O)N[C@H]3CCc4ccccc43)cnc2c1-c1ccc(N(C)C)cc1` [Example 342] registered an EC50 below 10 µg/mL.

In turn, `Cc1nn2c(C(C)C)c(C(=O)N[C@H]3CCc4ccccc43)cnc2c1-c1cccc(CN2CCCC2)c1` [Example 365] registered an EC50 below 10 µg/mL.

In turn, `CC(C)c1c(C(=O)N[C@H]2CCc3ccccc32)cnc2c(-c3cncc(F)c3)c(C(F)(F)F)nn12` [Example 155] registered an EC50 below 10 µg/mL.

Tested on in another series: not listed separately
The series can be described thus: log P by HPLC on reversed phase columns (Method L0; [a] acidic, [b] neutral range).
Conditions: not given
`Cc1nn2c(C(C)C)c(C(=O)N[C@H]3CCOc4ccccc43)cnc2c1-c1cc(O)c(F)c(F)c1` [Example 259] showed a chromatographic logP of 3.61.

For the compound `Cc1nn2c(C(C)C)c(C(=O)N[C@H]3CCc4ccccc43)cnc2c1-c1cccc(OC(C)C)c1` [Example 321], the chromatographic logP stood at 5.28.

In the case of `Cc1nn2c(C(C)C)c(C(=O)N[C@H]3CCc4ccccc43)cnc2c1-c1cccc(CN2CCOCC2)c1` [Example 354], the chromatographic logP was 2.01.

In turn, `Cc1nn2c(C(C)C)c(C(=O)N[C@H]3CCCc4ccccc43)cnc2c1-c1cc(Cl)c(Cl)c(Cl)c1` [Example 125] showed a chromatographic logP of 6.86.

Compound `Cc1nn2c(C3CC3)c(C(=O)N[C@H]3CCc4ccccc43)cnc2c1-c1cccc(N2CC(F)C2)c1` [Example 466] displayed a chromatographic logP of 3.85.

In turn, `Cc1nn2c(C(C)C)c(C(=O)N[C@H]3CCc4ccccc43)cnc2c1-c1cccc(F)n1` [Example 178] gave a chromatographic logP of 4.6.

Take `Cc1nn2c(CC(C)C)c(C(=O)N[C@H]3CCc4ccccc43)cnc2c1-c1c(F)cccc1Cl` [Example 224]: the chromatographic logP worked out at 4.82.

As for `Cc1nn2c(C(C)C)c(C(=O)N[C@H]3CCc4ccccc43)cnc2c1-c1cccnc1` [Example 297], the chromatographic logP stood at 2.19.

The compound `Cc1nn2c(C(C)C)c(C(=O)N[C@H]3CCOc4ccccc43)cnc2c1-c1ccc(Cl)cc1` [Example 118] displayed a chromatographic logP of 4.88.

The compound `CC(C)c1c(C(=O)N[C@H]2CCc3ccccc32)cnc2c(-c3c(F)cc(F)cc3F)c(C(F)(F)F)nn12` [Example 133] had a chromatographic logP of 5.01.

For the compound `Cc1nn2c(C(C)C)c(C(=O)N[C@H]3CCc4ccccc43)cnc2c1-n1cc(Cl)cn1` [Example 447], the chromatographic logP was 4.13.

In the case of `Cc1nn2c(C(C)C)c(C(=O)N[C@H]3CCc4ccccc43)cnc2c1-c1cccc(N2CCC2)c1` [Example 372], the chromatographic logP is 4.67.

On to `Cc1nn2c(C(C)C)c(C(=O)N[C@H]3CCc4ccccc43)cnc2c1-c1cncc(Cl)c1` [Example 314], for which the chromatographic logP turned out to be 4.19.

As for `CC(C)c1c(C(=O)N[C@H]2CCCc3ccccc32)cnc2c(-c3c(F)cccc3F)c(C(F)(F)F)nn12` [Example 138], the chromatographic logP amounted to 5.06.

In turn, `CCS(=O)(=O)c1nn2c(C(C)C)c(C(=O)N[C@H]3CCOc4ccccc43)cnc2c1-c1cc(Cl)cc(Cl)c1` [Example 212] registered a chromatographic logP of 4.37.

The compound `Cc1nn2c(C(C)C)c(C(=O)N[C@H]3CCc4ccccc43)cnc2c1-c1cccc(C(F)(F)F)n1` [Example 179] yielded a chromatographic logP of 5.39.

The compound `Cc1nn2c(C(C)C)c(C(=O)N[C@H]3CCc4ccccc43)cnc2c1-c1cccc(S(=O)(=O)C2CC2)c1` [Example 443] showed a chromatographic logP of 3.99.

`Cc1nn2c(C(C)C)c(C(=O)N[C@H]3CCc4ccccc43)cnc2c1-c1cc(Cl)c(Cl)c(Cl)c1` [Example 122] yielded a chromatographic logP of 6.58.

`Cc1nn2c(C(C)C)c(C(=O)N[C@H]3CCc4ccccc43)cnc2c1-c1ccc(N(C)C)cc1` [Example 342] returned a chromatographic logP of 3.91.

Consider `Cc1nn2c(C(C)C)c(C(=O)N[C@H]3CCc4ccccc43)cnc2c1-c1cccc(CN2CCCC2)c1` [Example 365], for which the chromatographic logP is 2.08.

The compound `CC(C)c1c(C(=O)N[C@H]2CCc3ccccc32)cnc2c(-c3cncc(F)c3)c(C(F)(F)F)nn12` [Example 155] came in with a chromatographic logP of 4.25.

For a further series, the target named is C. elegans Slo-1a (Caenorhabditis elegans, UniProt Q95V25). The series can be described thus: In vitro assay 1: C. elegans Slo-1a, action at a recombinant C. elegans CHO cell line (membrane potential measurement).
C. elegans Slo-1a, sequence (Q95V25 whole entry): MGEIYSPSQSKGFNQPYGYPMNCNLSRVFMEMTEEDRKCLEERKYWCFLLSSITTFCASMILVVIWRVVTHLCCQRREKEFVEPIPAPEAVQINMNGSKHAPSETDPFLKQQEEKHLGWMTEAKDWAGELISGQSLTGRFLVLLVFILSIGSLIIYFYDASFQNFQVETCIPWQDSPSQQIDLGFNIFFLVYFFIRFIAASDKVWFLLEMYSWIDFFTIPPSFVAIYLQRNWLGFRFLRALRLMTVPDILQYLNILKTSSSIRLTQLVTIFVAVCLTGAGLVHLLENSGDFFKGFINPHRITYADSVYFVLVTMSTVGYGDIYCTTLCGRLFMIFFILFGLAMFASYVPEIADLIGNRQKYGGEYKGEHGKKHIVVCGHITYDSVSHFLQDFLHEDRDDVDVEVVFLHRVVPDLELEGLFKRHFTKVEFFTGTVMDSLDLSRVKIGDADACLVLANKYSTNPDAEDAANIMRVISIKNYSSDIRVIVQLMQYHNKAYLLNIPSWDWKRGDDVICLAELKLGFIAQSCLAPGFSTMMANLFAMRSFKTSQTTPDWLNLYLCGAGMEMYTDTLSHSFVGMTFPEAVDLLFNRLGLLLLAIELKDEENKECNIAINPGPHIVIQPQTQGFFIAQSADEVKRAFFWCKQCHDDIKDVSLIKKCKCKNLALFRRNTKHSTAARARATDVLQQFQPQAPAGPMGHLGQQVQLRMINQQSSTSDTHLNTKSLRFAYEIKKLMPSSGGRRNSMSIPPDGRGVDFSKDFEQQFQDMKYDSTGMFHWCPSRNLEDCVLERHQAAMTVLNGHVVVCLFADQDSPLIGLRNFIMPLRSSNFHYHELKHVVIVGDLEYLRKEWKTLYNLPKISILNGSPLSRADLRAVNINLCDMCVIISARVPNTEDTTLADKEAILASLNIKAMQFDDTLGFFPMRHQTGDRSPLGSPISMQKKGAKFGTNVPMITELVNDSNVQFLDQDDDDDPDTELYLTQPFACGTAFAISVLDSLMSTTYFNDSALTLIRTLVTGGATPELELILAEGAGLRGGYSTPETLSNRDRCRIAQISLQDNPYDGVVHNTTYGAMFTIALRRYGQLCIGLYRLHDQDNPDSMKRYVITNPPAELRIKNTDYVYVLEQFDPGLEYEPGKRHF
Conditions: not given
Turning to `Cc1nn2c(C(C)C)c(C(=O)N[C@H]3CCOc4ccccc43)cnc2c1-c1cc(O)c(F)c(F)c1` [Example 259], the EC50 was 15.8 nM.

On to `Cc1nn2c(C(C)C)c(C(=O)N[C@H]3CCc4ccccc43)cnc2c1-c1cccc(OC(C)C)c1` [Example 321], for which the EC50 was 10 nM.

Turning to `Cc1nn2c(C(C)C)c(C(=O)N[C@H]3CCc4ccccc43)cnc2c1-c1cccc(CN2CCOCC2)c1` [Example 354], the EC50 was 398 nM.

For the compound `Cc1nn2c(C(C)C)c(C(=O)N[C@H]3CCCc4ccccc43)cnc2c1-c1cc(Cl)c(Cl)c(Cl)c1` [Example 125], the EC50 was 25.1 nM.

Turning to `Cc1nn2c(C3CC3)c(C(=O)N[C@H]3CCc4ccccc43)cnc2c1-c1cccc(N2CC(F)C2)c1` [Example 466], the EC50 is 10 nM.

As for `Cc1nn2c(C(C)C)c(C(=O)N[C@H]3CCc4ccccc43)cnc2c1-c1cccc(F)n1` [Example 178], the EC50 was 794 nM.

With `Cc1nn2c(CC(C)C)c(C(=O)N[C@H]3CCc4ccccc43)cnc2c1-c1c(F)cccc1Cl` [Example 224], the concentration for a half-maximal effect (EC50) is 31.6 nM.

In the case of `Cc1nn2c(C(C)C)c(C(=O)N[C@H]3CCc4ccccc43)cnc2c1-c1cccnc1` [Example 297], the EC50 is 1260 nM.

Turning to `Cc1nn2c(C(C)C)c(C(=O)N[C@H]3CCOc4ccccc43)cnc2c1-c1ccc(Cl)cc1` [Example 118], the EC50 was 15.8 nM.

On to `CC(C)c1c(C(=O)N[C@H]2CCc3ccccc32)cnc2c(-c3c(F)cc(F)cc3F)c(C(F)(F)F)nn12` [Example 133], for which the EC50 is 79.4 nM.

Take `Cc1nn2c(C(C)C)c(C(=O)N[C@H]3CCc4ccccc43)cnc2c1-n1cc(Cl)cn1` [Example 447]: the EC50 was 398 nM.

Consider `Cc1nn2c(C(C)C)c(C(=O)N[C@H]3CCc4ccccc43)cnc2c1-c1cccc(N2CCC2)c1` [Example 372], for which the EC50 was 15.8 nM.

For `Cc1nn2c(C(C)C)c(C(=O)N[C@H]3CCc4ccccc43)cnc2c1-c1cncc(Cl)c1` [Example 314], the EC50 was 15.8 nM.

`CC(C)c1c(C(=O)N[C@H]2CCCc3ccccc32)cnc2c(-c3c(F)cccc3F)c(C(F)(F)F)nn12` [Example 138]: the EC50 is 316 nM.

As to `CCS(=O)(=O)c1nn2c(C(C)C)c(C(=O)N[C@H]3CCOc4ccccc43)cnc2c1-c1cc(Cl)cc(Cl)c1` [Example 212], the EC50 was 501 nM.

Turning to `Cc1nn2c(C(C)C)c(C(=O)N[C@H]3CCc4ccccc43)cnc2c1-c1cccc(C(F)(F)F)n1` [Example 179], the EC50 was 398 nM.

Consider `Cc1nn2c(C(C)C)c(C(=O)N[C@H]3CCc4ccccc43)cnc2c1-c1cccc(S(=O)(=O)C2CC2)c1` [Example 443], for which the EC50 was 50.1 nM.

On to `Cc1nn2c(C(C)C)c(C(=O)N[C@H]3CCc4ccccc43)cnc2c1-c1cc(Cl)c(Cl)c(Cl)c1` [Example 122], for which the EC50 is 12.6 nM.

Take `Cc1nn2c(C(C)C)c(C(=O)N[C@H]3CCc4ccccc43)cnc2c1-c1ccc(N(C)C)cc1` [Example 342]: the EC50 was 200 nM.

For the compound `Cc1nn2c(C(C)C)c(C(=O)N[C@H]3CCc4ccccc43)cnc2c1-c1cccc(CN2CCCC2)c1` [Example 365], the EC50 is 3160 nM.

Regarding `CC(C)c1c(C(=O)N[C@H]2CCc3ccccc32)cnc2c(-c3cncc(F)c3)c(C(F)(F)F)nn12` [Example 155], the EC50 was 3160 nM.

In general, EC50 refers to the concentration at which the effect is half-maximal. As a reminder, the chromatographic logP is lipophilicity estimated from chromatographic retention. Low values mean a more hydrophilic compound, high ones a more lipophilic compound.
